Holding throughout (test): Large panel kinase profiling
Common to all, as to format: biochemical
Holding throughout (conditions): 1 μM test article, 1 mM ATP

One assay concerns the target T1, MAPK14/P38A (Homo sapiens, UniProt Q16539).
T1 construct: AssayQuant Technologies, Inc. (service provider)
The procedure, abridged:
(§1)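 One compound concentration (1 μM) was screened against each kinase at 1 mM ATP using PhosphoSens CSox-Sensor detection, at 30° C., with fluorescence read every 1 min (Ex 360 nm/Em 485 nm).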

The target in another assay is T2, MERTK/MER (Homo sapiens, UniProt Q12866).
T2 construct: AssayQuant Technologies, Inc. (assay service)
T2 sequence (Q12866 21-999): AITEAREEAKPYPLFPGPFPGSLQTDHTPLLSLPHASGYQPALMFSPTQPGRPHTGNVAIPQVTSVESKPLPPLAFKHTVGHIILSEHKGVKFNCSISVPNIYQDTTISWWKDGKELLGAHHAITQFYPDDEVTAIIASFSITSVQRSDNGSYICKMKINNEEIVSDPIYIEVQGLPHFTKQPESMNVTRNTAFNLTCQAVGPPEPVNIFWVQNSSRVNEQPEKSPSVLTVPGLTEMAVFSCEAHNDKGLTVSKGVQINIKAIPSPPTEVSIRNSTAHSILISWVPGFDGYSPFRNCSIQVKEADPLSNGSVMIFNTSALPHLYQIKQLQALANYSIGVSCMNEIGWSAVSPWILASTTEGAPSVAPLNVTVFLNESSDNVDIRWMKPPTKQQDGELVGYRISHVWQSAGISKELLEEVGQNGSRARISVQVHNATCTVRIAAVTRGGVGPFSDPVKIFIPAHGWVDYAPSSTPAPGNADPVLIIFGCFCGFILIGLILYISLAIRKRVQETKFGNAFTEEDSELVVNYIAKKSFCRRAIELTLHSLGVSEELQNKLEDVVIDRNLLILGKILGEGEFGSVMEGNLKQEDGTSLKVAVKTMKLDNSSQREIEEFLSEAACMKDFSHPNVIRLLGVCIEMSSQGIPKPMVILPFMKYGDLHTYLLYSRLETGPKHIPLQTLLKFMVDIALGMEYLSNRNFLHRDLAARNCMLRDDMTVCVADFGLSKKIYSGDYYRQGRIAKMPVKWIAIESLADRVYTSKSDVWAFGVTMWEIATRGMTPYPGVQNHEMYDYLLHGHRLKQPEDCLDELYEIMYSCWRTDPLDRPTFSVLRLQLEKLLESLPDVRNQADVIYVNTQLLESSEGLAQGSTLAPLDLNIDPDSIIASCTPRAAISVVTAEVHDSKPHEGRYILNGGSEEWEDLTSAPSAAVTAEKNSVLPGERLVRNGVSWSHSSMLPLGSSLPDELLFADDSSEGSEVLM
The procedure, abridged:
as §1

The target of a further assay is T3, MYLK3 (Homo sapiens, UniProt Q32MK0).
T3 construct: AssayQuant Technologies, Inc. (assay service)
T3 sequence (Q32MK0 1-819): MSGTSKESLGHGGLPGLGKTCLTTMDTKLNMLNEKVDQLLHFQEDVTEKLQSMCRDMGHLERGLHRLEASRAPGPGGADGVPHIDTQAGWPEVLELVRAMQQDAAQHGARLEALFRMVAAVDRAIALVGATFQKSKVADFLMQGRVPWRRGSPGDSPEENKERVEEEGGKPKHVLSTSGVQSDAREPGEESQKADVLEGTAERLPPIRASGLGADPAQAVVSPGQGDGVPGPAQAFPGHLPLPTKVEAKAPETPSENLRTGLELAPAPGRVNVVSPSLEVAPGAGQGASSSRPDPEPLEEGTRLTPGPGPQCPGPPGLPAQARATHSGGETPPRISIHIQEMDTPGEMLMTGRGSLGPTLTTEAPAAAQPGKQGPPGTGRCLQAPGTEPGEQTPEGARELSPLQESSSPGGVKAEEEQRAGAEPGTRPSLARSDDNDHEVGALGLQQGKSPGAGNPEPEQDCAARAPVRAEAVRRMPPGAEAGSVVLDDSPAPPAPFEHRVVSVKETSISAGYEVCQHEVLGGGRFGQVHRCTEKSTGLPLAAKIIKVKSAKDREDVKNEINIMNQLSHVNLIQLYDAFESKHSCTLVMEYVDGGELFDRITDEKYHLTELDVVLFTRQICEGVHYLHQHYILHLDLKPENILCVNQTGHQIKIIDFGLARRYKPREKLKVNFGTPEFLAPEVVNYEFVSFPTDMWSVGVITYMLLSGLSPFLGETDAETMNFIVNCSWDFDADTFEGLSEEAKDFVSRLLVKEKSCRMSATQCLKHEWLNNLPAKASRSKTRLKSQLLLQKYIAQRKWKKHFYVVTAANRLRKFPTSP
The procedure, abridged:
as §1

A further assay addresses T4, RPS6KA5/MSK1 (Homo sapiens, UniProt O75582).
T4 construct: AssayQuant Technologies, Inc. (contract assay)
Put shortly: as §1

Another assay concerns the target T5, SK1 (Homo sapiens, UniProt P57059).
T5 construct: AssayQuant Technologies, Inc. (contract assay)
Put shortly: as §1

A further assay has as its target T6, TXK (Homo sapiens, UniProt P42681).
T6 construct: AssayQuant Technologies, Inc. (contract laboratory that ran the panel)
T6 sequence (P42681 1-527): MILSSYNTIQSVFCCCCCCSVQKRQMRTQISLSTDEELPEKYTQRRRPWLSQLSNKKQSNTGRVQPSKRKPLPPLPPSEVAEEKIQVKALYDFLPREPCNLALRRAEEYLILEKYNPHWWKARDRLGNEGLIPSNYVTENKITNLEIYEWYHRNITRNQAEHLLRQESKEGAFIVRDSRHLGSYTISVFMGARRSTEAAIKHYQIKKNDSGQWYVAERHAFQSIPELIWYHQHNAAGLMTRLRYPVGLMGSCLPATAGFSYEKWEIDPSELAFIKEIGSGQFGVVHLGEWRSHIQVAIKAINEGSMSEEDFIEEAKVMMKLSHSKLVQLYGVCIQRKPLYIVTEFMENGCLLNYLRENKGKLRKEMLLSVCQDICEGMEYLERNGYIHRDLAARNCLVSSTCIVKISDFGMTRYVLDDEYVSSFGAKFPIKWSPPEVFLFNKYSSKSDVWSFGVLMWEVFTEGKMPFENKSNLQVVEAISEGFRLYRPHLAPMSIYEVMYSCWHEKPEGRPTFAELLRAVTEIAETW
The procedure, abridged: as §1

These results are taken from patent US20220009920A1 (GB005, Inc., priority 2020, published 2022).

What is called inhibition is the relative decrease from the control value, in per cent.

T5 sequence (P57059 whole entry): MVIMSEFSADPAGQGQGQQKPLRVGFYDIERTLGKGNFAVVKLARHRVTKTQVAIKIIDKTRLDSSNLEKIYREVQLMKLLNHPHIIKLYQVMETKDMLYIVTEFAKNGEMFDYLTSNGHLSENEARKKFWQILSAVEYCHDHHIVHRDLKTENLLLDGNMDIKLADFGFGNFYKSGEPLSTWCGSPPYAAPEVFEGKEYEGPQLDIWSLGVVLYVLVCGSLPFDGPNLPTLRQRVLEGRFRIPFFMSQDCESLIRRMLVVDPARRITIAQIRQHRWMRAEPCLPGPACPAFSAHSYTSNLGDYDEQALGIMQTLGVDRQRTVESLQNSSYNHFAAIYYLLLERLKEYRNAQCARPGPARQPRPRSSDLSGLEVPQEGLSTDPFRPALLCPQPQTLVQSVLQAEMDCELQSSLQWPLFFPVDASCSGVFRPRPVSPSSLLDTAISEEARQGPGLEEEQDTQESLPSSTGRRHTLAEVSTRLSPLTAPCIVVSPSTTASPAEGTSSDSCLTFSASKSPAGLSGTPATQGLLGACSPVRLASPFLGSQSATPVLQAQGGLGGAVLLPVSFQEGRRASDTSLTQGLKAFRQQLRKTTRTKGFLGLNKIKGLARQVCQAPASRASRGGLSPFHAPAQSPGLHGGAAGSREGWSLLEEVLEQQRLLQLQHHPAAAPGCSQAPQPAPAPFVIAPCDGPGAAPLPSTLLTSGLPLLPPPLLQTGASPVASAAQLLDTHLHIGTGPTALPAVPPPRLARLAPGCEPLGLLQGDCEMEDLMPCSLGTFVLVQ
T4 sequence (O75582 whole entry): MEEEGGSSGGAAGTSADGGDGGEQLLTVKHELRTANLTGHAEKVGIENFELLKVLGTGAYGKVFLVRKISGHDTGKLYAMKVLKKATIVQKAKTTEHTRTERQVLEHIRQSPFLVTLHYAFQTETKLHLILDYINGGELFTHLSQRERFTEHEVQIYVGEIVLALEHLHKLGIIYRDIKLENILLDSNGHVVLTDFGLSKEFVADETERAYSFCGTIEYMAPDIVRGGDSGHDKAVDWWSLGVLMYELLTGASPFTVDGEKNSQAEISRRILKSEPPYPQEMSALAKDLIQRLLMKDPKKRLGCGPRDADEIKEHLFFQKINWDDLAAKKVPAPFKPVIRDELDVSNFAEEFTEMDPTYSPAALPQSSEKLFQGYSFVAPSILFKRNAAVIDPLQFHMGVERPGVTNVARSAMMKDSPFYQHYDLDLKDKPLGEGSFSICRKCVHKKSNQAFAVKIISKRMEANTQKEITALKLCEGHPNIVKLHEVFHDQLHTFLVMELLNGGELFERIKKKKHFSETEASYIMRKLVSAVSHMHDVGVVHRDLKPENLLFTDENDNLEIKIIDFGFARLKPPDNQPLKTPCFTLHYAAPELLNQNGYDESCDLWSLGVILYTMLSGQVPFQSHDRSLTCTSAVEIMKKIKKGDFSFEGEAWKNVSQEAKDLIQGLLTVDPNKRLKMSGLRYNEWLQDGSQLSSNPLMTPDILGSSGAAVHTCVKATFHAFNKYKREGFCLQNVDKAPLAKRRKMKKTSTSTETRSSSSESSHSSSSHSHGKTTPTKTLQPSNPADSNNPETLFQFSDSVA
T1 sequence (Q16539 2-360 limits assumed): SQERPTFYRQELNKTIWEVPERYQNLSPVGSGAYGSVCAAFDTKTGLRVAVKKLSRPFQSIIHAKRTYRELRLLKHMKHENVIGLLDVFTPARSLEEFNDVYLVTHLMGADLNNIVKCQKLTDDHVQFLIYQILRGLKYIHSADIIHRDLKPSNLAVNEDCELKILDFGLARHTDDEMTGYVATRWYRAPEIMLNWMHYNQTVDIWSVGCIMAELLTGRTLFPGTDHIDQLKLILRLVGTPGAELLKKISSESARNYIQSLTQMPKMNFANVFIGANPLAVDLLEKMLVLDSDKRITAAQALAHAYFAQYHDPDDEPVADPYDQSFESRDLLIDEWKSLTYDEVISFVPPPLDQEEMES

`C=CC(=O)N1CCCC(c2c(F)cc(C(N)=O)c3[nH]c4c(c23)CCCCC4)C1` (single isomer, unassigned) [Compound 5-6]: the inhibition at 1 µM at MAPK14/P38A is -8.3%; at MERTK/MER, -0.8%; at MYLK3 it was 21.5%; on RPS6KA5/MSK1 it was -20.7%; against SK1, -13.6%; at TXK, 74.7%.
Regarding `C=CC(=O)N1CCC[C@@H](c2c(F)cc(C(N)=O)c3[nH]c4c(c23)CC2(CC4)CC2)C1` [Compound 6-2, (S)-5-(1-acryloylpiperidin-3-yl)-6-fluoro-1,2,4,9-tetrahydrospiro[carbazole-3,1′-cyclopropane]-8-carboxamide], the inhibition at 1 µM was 28.2% on MAPK14/P38A; 12.4% at MERTK/MER; 9.9% against MYLK3; -4.2% at RPS6KA5/MSK1; 4.6% at SK1; 59.1% against TXK.
With `C=CC(=O)N1CCC[C@@H](c2c(F)cc(C(N)=O)c3[nH]c4c(c23)CCC4)C1` [Compound 10-2, (S)-8-(1-acryloylpiperidin-3-yl)-7-fluoro-1,2,3,4-tetrahydrocyclo-penta[b]indole-5-carboxamide], the inhibition at 1 µM was 5% against MAPK14/P38A; 14.8% against MERTK/MER; 14.9% against MYLK3; -14.5% against RPS6KA5/MSK1; 13.5% at SK1; 71% on TXK.
